The target in experiment [1] is T1, FAAH (Homo sapiens, UniProt O00519).
T1 construct: The full length FAAH was subcloned into the mammalian expression vector, pcDEF.neo; expressed in transfected cells; cDNA from Origene
T1 sequence (O00519 1-579): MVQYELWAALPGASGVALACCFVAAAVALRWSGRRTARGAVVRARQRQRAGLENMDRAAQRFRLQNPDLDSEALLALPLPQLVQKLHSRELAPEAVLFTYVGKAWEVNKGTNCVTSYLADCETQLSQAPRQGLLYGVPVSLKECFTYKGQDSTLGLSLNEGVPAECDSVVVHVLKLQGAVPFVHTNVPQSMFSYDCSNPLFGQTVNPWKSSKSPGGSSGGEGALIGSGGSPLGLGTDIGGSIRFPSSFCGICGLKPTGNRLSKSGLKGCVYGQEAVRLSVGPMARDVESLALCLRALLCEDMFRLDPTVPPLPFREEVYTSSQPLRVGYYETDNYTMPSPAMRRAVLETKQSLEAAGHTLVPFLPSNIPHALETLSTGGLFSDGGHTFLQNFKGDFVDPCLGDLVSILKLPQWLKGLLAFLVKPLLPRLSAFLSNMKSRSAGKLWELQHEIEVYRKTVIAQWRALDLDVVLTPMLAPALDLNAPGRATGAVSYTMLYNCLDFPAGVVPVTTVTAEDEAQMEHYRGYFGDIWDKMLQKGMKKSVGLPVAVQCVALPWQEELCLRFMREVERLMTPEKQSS
Nature of the experiment: FAAH whole cell assay, CHO cells expressing human FAAH. The class given is cell-based. The note with it: read-out: Human whole cell. The source says: (§1) To assist in assay development stable cell lines for human, murine and rat full length FAAH were developed. Human FAAH cDNA (Accession No: NM_001441.1) was purchased from Origene (Rockville, Md.). The full length FAAH was subcloned into the mammalian expression vector, pcDEF.neo, using XbaI and […] restriction sites and used for stable cell line generation.
(§2) Murine (accession number NM_010173) and Rat FAAH (accession number NM_024132) was amplified by reverse transcriptase polymerase chain reaction (RT-PCR) from brain cDNA (BD Biosciences, San Jose, Calif.) using primers 1 and 2 or primers 1 and 3 respectively (see Table). The resulting PCR product was ligated into pCR4TOPO and DNA sequence confirmed. The full length murine FAAH was subcloned into the mammalian expression vector, pcDEFneo using either EcoRI (murine) or KpnI and EcoRI (rat) restriction sites. Chinese hamster ovary cells (CHO) were transfected following manufacturers protocol (AMAXA). Forty eight hours post transfection, cells were trypsinized and transferred to 96 well plates in Iscove's DMEM media supplemented with 2 mM Glutamine, 10% fetal calf serum, 1 mg/ml geneticin and HT Supplement (0.1 mM sodium hypoxanthine, 0.016 mM thymidine) in order to isolate single clones. Following selection in geneticin, individual clones were selected and FAAH activity was assessed using a whole cell fluorescent anandamide assay, modified from Ramarao et al (2005). Following removal of tissue culture media cells were dislodged following addition of Cellstripper (Mediatech, Inc. Manassas, Va.) and transferred to 96 well black clear bottom assay plate, centrifuged at 1,000 rpm for 3 mins and media removed and replaced with assay buffer (50 mM Tris pH8.0, 1 mM EDTA, 0.1% fatty acid free BSA). The reaction was initiated by addition of fluorescent substrate, AMC Arachidonoyl Amide (Cayman Chemical, Ann Arbor, Mich.) to 1 μM and reaction allowed to proceed for 2 hours at room temperature. Release of fluorescence was monitored in a CytoFluor Multiplate Reader. Cells expressing the highest amount of FAAH activity were selected for study with FAAH inhibitors.
(§3) Assays are performed on either cell lysate or microsome fractions prepared as described or in whole cell format employing either the fluorescent substrate AAMCA (Cayman chemical, Ann Arbor, Mich.,) or ^3H-anandmaide ([ETHANOLAMINE-1-3H]American Radiolabeled Chemicals; 1 mCi/ml). The cell lysate or microsome assay is performed in Costar black wall, clear bottom plates by adding FAAH_CHO (whole cell, cell lysate or microsome) in assay buffer (50 mM Phosphate, pH 8.0, 1 mM EDTA, 200 mM KCl, 0.2% glycerol, 0.1% fatty acid free BSA) to each well, followed by either DMSO or compound and allowed to incubate at 22-25° C. for fifteen minutes. AAMCA substrate was used to achieve a final concentration of 1 μM and reaction allowed to proceed at room temperature for 1-3 hours. Fluorescent release as a measure of FAAH activity was monitored by reading the plate in a CytoFluor Multiplate Reader ([…]). Whole cell assay is conducted with cells harvested after rinsing tissue culture flasks three times with Ca^++Mg^++ free PBS, incubating for 10 mm in Enzyme free dissociation media and centrifuging for 5 minutes at 1,000 rpm in table top centrifuge. Cells are resuspended in assay buffer at desired cell number in (4×10^4 cells/assay in 96-well format; 1×10^4 cells/assay in 384-well format) and assayed as described.

Experiment [2] has as its target T1, FAAH. The experiment in a line: FAAH enzyme assay, lysate of CHO cells expressing human FAAH. The class given is biochemical. The settings on record: CHO cell lysate, read-out: Human Lysate.
Text: as §1
CHO cells expressing FAAH were used to prepare either crude cell lysate or microsome fractions. To harvest cells, tissue culture media was decanted, the monolayer washed three times with Ca^++Mg^++ free PBS and cells recovered after 15 min in enzyme free dissociation media (Millipore Corp, Billerica, Mass.). Cells were collected by centrifuging at 2000 rpm for 15 min. and the cell pellet re-suspended with 50 mM HEPES (pH 7.4) containing 1 mM EDTA and the protease inhibitors aprotinin (1 mg/ml) and leupeptin (100 μM). The suspension was sonicated at 4° C. and the cell lysate recovered after centrifuging at 12,000×g (14,600 rpm, SS34 rotor) for 20 min at 4° C. to form a crude pellet of cell debris, nuclei, peroxisomes, lysosomes, and mitochondria; the supernatant or cell lysate was used for FAAH enzyme assay. In some cases, microsomes fractions enriched in FAAH were prepared by centrifuging the cell lysate further at 27,000 rpm (100,000×g) in SW28 rotor for 50 minutes at 4° C. The pellet containing FAAH-enriched microsomes was re-suspend in 50 mM HEPES, (pH 7.4) 1 mM EDTA, and any remaining DNA sheared by passage of material through a 23 gauge needle and aliquots of enzyme were store at −80° C. prior to use.
(American Radiolabeled Chemicals; 1 mCi/ml) with FAAH (Life Sciences (1995), 56, 1999-2005 and Journal of Pharmacology and Experimented Therapeutics (1997), 283, 729-734), Analytical. Biochemistry (2003), 318, 270-5. In addition, routine assays were performed monitoring hydrolysis of arachidonyl-7-amino-4-methylcoumarin amide (AAMCA) by following increase in fluorescence upon release of 7-amino 4-methyl coumarin (λEX=355 nm, (λEM=460 nm). Analytical. Biochemistry (2005). 343, 143-51.
as §3
Alternatively, assays are performed using anandamide [ethanolamine 1-^3H] (specific activity of 10 Ci/mmol) diluted with cold anandamide to achieve a final assay concentration of 1 μM anandamide (˜50,000 cpm). Enzyme (CHO cell lysate, brain or liver homogenate) is incubated in assay buffer (50 mM Phosphate, pH 8.0, 1 mM EDTA, 200 mM KCl, 0.2% glycerol, 0.1% fatty acid free BSA) with inhibitor at 25° C. for 30 minutes. The reaction was terminated by addition of 2 volumes of chloroform:methanol (1:1) and mixed by vortexing. […]

Experiment [3] has as its target T2, FAAH (Rattus norvegicus, UniProt P97612).
T2 construct: expressed in transfected cells; cDNA by RT-PCR from brain cDNA (BD Biosciences)
T2 sequence (P97612 1-579): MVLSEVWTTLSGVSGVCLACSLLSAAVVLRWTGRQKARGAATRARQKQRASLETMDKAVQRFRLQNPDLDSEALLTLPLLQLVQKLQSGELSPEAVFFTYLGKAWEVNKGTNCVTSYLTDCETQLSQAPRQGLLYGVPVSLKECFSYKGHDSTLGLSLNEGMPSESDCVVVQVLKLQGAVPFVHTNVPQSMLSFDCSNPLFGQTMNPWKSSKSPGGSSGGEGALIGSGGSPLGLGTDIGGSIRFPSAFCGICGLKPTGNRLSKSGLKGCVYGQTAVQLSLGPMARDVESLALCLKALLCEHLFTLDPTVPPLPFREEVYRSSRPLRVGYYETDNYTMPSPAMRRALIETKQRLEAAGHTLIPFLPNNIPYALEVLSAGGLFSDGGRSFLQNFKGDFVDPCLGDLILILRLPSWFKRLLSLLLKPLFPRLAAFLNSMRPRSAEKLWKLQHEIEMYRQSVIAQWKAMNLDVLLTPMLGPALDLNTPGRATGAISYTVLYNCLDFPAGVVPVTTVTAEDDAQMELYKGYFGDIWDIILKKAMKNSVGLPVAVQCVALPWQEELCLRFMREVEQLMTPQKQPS
The experiment in a line: FAAH whole cell assay, CHO cells expressing rat FAAH. The class given is cell-based.
Text: as §2, §3

pIC50: −log10 of the molar value.

Turning to `CS(=O)(=O)c1ccc(-c2nn(-c3ccncc3)cc2Sc2ccc(Cl)cc2)cc1` [Ex 5], the results for the pIC50 at FAAH [1], on FAAH [2] and against FAAH [3] were 7.32, 7.55 and 7.80, respectively.
Regarding `O=C(NCCCl)c1ccc(-c2nn(-c3ccccc3)cc2Sc2ccc(Cl)cc2)cc1` [Example 121, N-(2-Chloroethyl)-4-{4-[(4-chlorophenyl)thio]-1-phenyl-1H-pyrazol-3-yl}benzamide], the pIC50 was 6.91 at FAAH [1], 7.10 at FAAH [2] and 7.28 at FAAH [3].
`CC(C)(O)c1cnc(-c2nn(-c3ccc(F)cn3)cc2Sc2ccc(Cl)cc2)cn1` [Example 229, 2-{5-[4-[(4-Chlorophenyl)thio]-1-(5-fluoropyridin-2-yl)-1H-pyrazol-3-yl}pyrazin-2-yl]propan-2-ol]: the results for the pIC50 at FAAH [1], on FAAH [2] and against FAAH [3] were 7.18, 7.59 and 7.74, respectively.
`CS(=O)(=O)c1ccc(-c2c(Sc3ccc(Cl)cc3)cnn2-c2ccc(F)cc2)cc1` [Ex 25, 4-[(4-Chlorophenyl)thio]-2-(4-fluorophenyl)-3-[4-(methylsulfonyl)phenyl]-1H-pyrazole]: the pIC50 is 6.63 on FAAH [1], 6.57 on FAAH [2] and 6.53 at FAAH [3].
In the same order, the values of `CS(=O)(=O)c1ccc(-c2nn(C3CCCC3)cc2Sc2ccc(Cl)cc2)cc1` [Ex 23] are 6.85, 6.84 and 7.07.
Turning to `Clc1ccc(Sc2cn(-c3ccccc3)nc2-c2ccc(-c3c[nH]nn3)cc2)cc1` [Example 88, 4-(4-{4-[(4-Chlorophenyl)thio]-1-phenyl-1H-pyrazol-3-yl}phenyl)-1H-1,2,3-triazole], the pIC50 at FAAH [1] is 6.40; on FAAH [2] it was 6.92; against FAAH [3] it was 6.80.
For the compound `CS(=O)(=O)c1ccc(-c2nn(-c3ccc(F)cc3)cc2Sc2ccc(Cl)cc2)cc1` [Ex 1], the pIC50 is 7.44 on FAAH [1], 7.80 at FAAH [2] and 7.74 against FAAH [3].
With `[O-][n+]1cccc(-n2cc(Sc3ccc(Cl)cc3)c(-c3ccc(-c4ncon4)cc3)n2)c1` [Example 75], the pIC50 is 6.23 at FAAH [1], 7.00 at FAAH [2] and 6.86 against FAAH [3].

Source of the values: patent US20110144056A1, “PYRAZOLE DERIVATIVES USEFUL AS INHIBITORS OF FAAH” (priority 2008, published 2011).
